Read-outs that look alike come from different tables or passages of the source.
What was measured:
Assay in all cases: in vitro antibacterial activity, agar dilution method (MIC)
Assay type in all cases: cell-based
Pseudomonas Cepacia = settings: strain 296I, BHI agar, 20-24 hours
How it was run: (§1)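 Agar dilution on BHI agar, typically 12 two-fold dilutions prepared from a 2,000 ug/mL stock solution. Plates were spot-inoculated with about 10^4 organisms from overnight BHI broth cultures, then incubated 20-24 h at 35°-37° C. MIC was the lowest concentration giving no growth, a slight haze or sparse isolated colonies compared with the growth control.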

Escherichia Coli = settings: BHI agar, 20-24 hours
How it was run: as §1

Streptococcus Pyogenes = settings: BHI agar, 20-24 hours
How it was run: (§2)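 Agar dilution in Brain Heart Infusion agar, usually 12 two-fold dilutions from a 2,000 ug/mL stock. Overnight BHI broth cultures were diluted 1:100 (1:10 for slow growers such as Streptococcus), and ~10^4 organisms were spotted per plate. MIC read after 20-24 h at 35°-37° C as lowest concentration giving no growth, slight haze or sparse colonies versus growth control.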

Enterobacter Aerogenes = settings: BHI agar, 20-24 hours
How it was run: as §2

Klebsiella Pneumoniae = settings: BHI agar, 20-24 hours
How it was run: as §2

Pseudomonas Aeruginosa = settings: BHI agar, 20-24 hours
How it was run: as §2

Enterococcus Faecium = settings: BHI agar, 20-24 hours
How it was run: as §2

Providencia Stuartii = settings: strain CMX 640, BHI agar, 20-24 hours
How it was run: as §2

Streptococcus Agalactiae = settings: strain CMX 508, BHI agar, 20-24 hours
How it was run: as §2

Acinetobacter Sp = settings: strain CMX 669, BHI agar, 20-24 hours
How it was run: as §2

[1] = system: Staphylococcus Epidermidis; settings: strain 3519, BHI agar, 20-24 hours
How it was run: as §2

Staphylococcus Aureus = settings: BHI agar, 20-24 hours
How it was run: as §2

Haemophilus Influenzae = settings: BHI agar, 20-24 hours
How it was run: as §2

Micrococcus Luteus = settings: BHI agar, 20-24 hours
How it was run: as §2

Streptococcus Bovis = settings: strain A5169, BHI agar, 20-24 hours
How it was run: as §2

[2] = Haemophilus influenzae, strain 588A, read-out: MIC

Measured: MIC

CCC1OC(=O)CC(O)C(C)C(OC2OC(C)C(O)C(N(C)C)C2O)C(CC=O)CC(C)C(N(C)C)CCC(C)=CC1COC(C)=O (stereo not drawn) [Example 7, [9S]-23-O-Acetyl-9-deoxo-10,11-dihydro-9-N,N-dimethylamino-5-O-mycaminosyl-tylonide]
1 µg/mL: Haemophilus Influenzae; strain 519A
50 µg/mL: Escherichia Coli; strain DC-2 | Escherichia Coli; strain KNK 437 | Acinetobacter Sp
16 µg/mL: Haemophilus Influenzae; strain 751
0.5 µg/mL: Haemophilus Influenzae; strain 1177
> 100 µg/mL: Pseudomonas Cepacia | Streptococcus Pyogenes; strain 930 CONST | Enterobacter Aerogenes; strain ATCC 13048 | Pseudomonas Aeruginosa; strain A5007 | Pseudomonas Aeruginosa; strain K799/WT | Providencia Stuartii
0.78 µg/mL: Escherichia Coli; strain SS | Streptococcus Pyogenes; strain EES61 | Micrococcus Luteus; strain ATCC 9341
100 µg/mL: Escherichia Coli; strain JUHL | Klebsiella Pneumoniae; strain ATCC 8045 | Pseudomonas Aeruginosa; strain BMH10
3.1 µg/mL: Pseudomonas Aeruginosa; strain K799/61 | Staphylococcus Aureus; strain 45
12.5 µg/mL: Escherichia Coli; strain H560
4 µg/mL: Haemophilus Influenzae; [2] | Haemophilus Influenzae; strain 566A | Haemophilus Influenzae; strain 747C | Haemophilus Influenzae; strain 1435 | Haemophilus Influenzae; strain ATCC 9795 | Haemophilus Influenzae; strain ATCC 10211 | Haemophilus Influenzae; strain ATCC 19418 | Haemophilus Influenzae; strain DILL AMP R | Haemophilus Influenzae; strain SOL AMP R | Haemophilus Influenzae; strain SPK AMP R
0.1 µg/mL: Streptococcus Bovis
6.2 µg/mL: Staphylococcus Aureus; strain 45 RAR2 | Staphylococcus Aureus; strain 642A | Staphylococcus Aureus; strain A5177 | Staphylococcus Aureus; strain ATCC 6538P | Staphylococcus Aureus; strain CMX 553 | Staphylococcus Aureus; strain NCTC 10649
2 µg/mL: Haemophilus Influenzae; strain 503B | Haemophilus Influenzae; strain ATCC 43095
0.39 µg/mL: Streptococcus Agalactiae
1.56 µg/mL: Streptococcus Pyogenes; strain 2548 INDUC | Enterococcus Faecium; strain ATCC 8043 | [1] | Micrococcus Luteus; strain ATCC 4698

CCC1OC(=O)CC(O)C(C)C(OC2OC(C)CC(N(C)C)C2O)C(CC=O)CC(C)C(N(C)C)CCC(C)=CC1COC(C)=O (stereo not drawn) [Example 8, [9S]-23-O-Acetyl-9-deoxo-4'-deoxy-10,11-dihydro-9-N,N-dimethylamino-5-O-mycaminosyl-tylonide]
3.1 µg/mL: Staphylococcus Aureus; Staphylococcus aureus, ATCC6538P, strain ATCC 6538P, read-out: MIC | Staphylococcus Aureus; Staphylococcus aureus, strain 45, read-out: MIC | Staphylococcus Aureus; Staphylococcus aureus, strain 45 RAR2, read-out: MIC | Staphylococcus Aureus; Staphylococcus aureus, strain 642A, read-out: MIC | Staphylococcus Aureus; Staphylococcus aureus, strain CMX 553, read-out: MIC
0.78 µg/mL: Streptococcus Pyogenes; Streptococcus pyogenes, strain EES61, read-out: MIC | Staphylococcus Aureus; Staphylococcus aureus, NCTC10649, strain NCTC 10649, read-out: MIC | Micrococcus Luteus; Micrococcus luteus, ATCC4698, strain ATCC 4698, read-out: MIC
0.39 µg/mL: Streptococcus Agalactiae; Streptococcus agalactiae, read-out: MIC
25 µg/mL: Escherichia Coli; Escherichia coli, strain DC-2, read-out: MIC | Escherichia Coli; Escherichia coli, strain KNK 437, read-out: MIC
1 µg/mL: Haemophilus Influenzae; Haemophilus influenzae, strain 519A | Haemophilus Influenzae; Haemophilus influenzae, strain 1435
0.2 µg/mL: Escherichia Coli; Escherichia coli, strain SS, read-out: MIC | Micrococcus Luteus; Micrococcus luteus, ATCC9341, strain ATCC 9341, read-out: MIC
0.1 µg/mL: Streptococcus Bovis; Streptococcus equinus
2 µg/mL: Haemophilus Influenzae; Haemophilus influenzae, ATCC9795, strain ATCC 9795, read-out: MIC | Haemophilus Influenzae; Haemophilus influenzae, ATCC10211, strain ATCC 10211, read-out: MIC | Haemophilus Influenzae; Haemophilus influenzae, ATCC19418, strain ATCC 19418, read-out: MIC | Haemophilus Influenzae; Haemophilus influenzae, ATCC43095, strain ATCC 43095, read-out: MIC | Haemophilus Influenzae; Haemophilus influenzae, strain 503B, read-out: MIC | Haemophilus Influenzae; Haemophilus influenzae, strain 504, read-out: MIC | Haemophilus Influenzae; Haemophilus influenzae, strain 566A, read-out: MIC | Haemophilus Influenzae; [2] | Haemophilus Influenzae; Haemophilus influenzae, strain 632A, read-out: MIC | Haemophilus Influenzae; Haemophilus influenzae, strain 667A, read-out: MIC | Haemophilus Influenzae; Haemophilus influenzae, strain 747C, read-out: MIC | Haemophilus Influenzae; Haemophilus influenzae, strain DILL AMP R, read-out: MIC | Haemophilus Influenzae; Haemophilus influenzae, strain SOL AMP R, read-out: MIC | Haemophilus Influenzae; Haemophilus influenzae, strain SPK AMP R, read-out: MIC
8 µg/mL: Haemophilus Influenzae; Haemophilus influenzae, strain 751
1.56 µg/mL: Streptococcus Pyogenes; Streptococcus pyogenes, strain 2548 INDUC, read-out: MIC | Enterococcus Faecium; Enterococcus faecium, ATCC8043, strain ATCC 8043, read-out: MIC | [1]; Staphylococcus epidermidis, read-out: MIC | Staphylococcus Aureus; Staphylococcus aureus, strain A5177, read-out: MIC
6.2 µg/mL: Escherichia Coli; Escherichia coli, strain H560, read-out: MIC | Pseudomonas Aeruginosa; Pseudomonas aeruginosa, strain K799/61, read-out: MIC
0.25 µg/mL: Haemophilus Influenzae; Haemophilus influenzae, strain 1177, read-out: MIC
> 100 µg/mL: Pseudomonas Cepacia; Burkholderia cepacia, read-out: MIC | Pseudomonas Aeruginosa; Pseudomonas aeruginosa, strain A5007, read-out: MIC | Pseudomonas Aeruginosa; Pseudomonas aeruginosa, strain BMH10, read-out: MIC | Pseudomonas Aeruginosa; Pseudomonas aeruginosa, strain K799/WT, read-out: MIC | Providencia Stuartii; Providencia stuartii, read-out: MIC
50 µg/mL: Escherichia Coli; Escherichia coli, strain JUHL, read-out: MIC | Streptococcus Pyogenes; Streptococcus pyogenes, strain 930 CONST, read-out: MIC | Enterobacter Aerogenes; Klebsiella aerogenes, ATCC13048, strain ATCC 13048, read-out: MIC | Klebsiella Pneumoniae; Klebsiella pneumoniae, ATCC8045, strain ATCC 8045, read-out: MIC
12.5 µg/mL: Acinetobacter Sp; Acinetobacter, read-out: MIC

Reference: patent publication US5140014A (Abbott Laboratories, priority 1989, dated 1992)
